According to patent US20260335323A1, “CHIMERIC MOLECULE” (UCL Business Ltd, priority 2023, published 2026):

Legend:
PANC-1 cells = test: mCherry-EGFP-LC3 tandem reporter assay, autophagosomes/autolysosomes; type: cell-based, human; details: for autophagic flux: bafilomycin A1 co-treatment; for enhanced number of mCherry puncta: co-treatment with bafilomycin A1; for fold increase in number of mCherry puncta: mCherry puncta (autolysosomes); for fold increase in number of EGFP puncta: panc-1 cells
Protocol: FIG. 1. The structure of AUTAC-4 is shown in (A). (B) Representative images of SH-SY5Y cells stably expressing the mito-mKeima reporter treated with AUTAC4 for 18 h. Nuclei were stained with Hoechst 33342, healthy mitochondria are shown in green and mitochondria in lysosomes are shown in red. (C-E) Fold change in mitophagy index over time after treatment with increasing concentrations of AUTAC4 under treatment with DMSO (C), 3 mM CCCP (D) or 0.1/0.1 mM antimycin/oligomycin (E), also for 18 h. (F) Quantification of changes in mitochondrial membrane potential over time (DYm) by measuring the TMRM relative fluorescence intensity (RFI) treated with DMSO, 10 mM CCCP, 10 mM and 20 mM AUTAC4. Normalised to number of nuclei. (G) Representative western blot of SH-SY5Y cells treated with DMSO, 10 mM AUTAC4 or 10 mM AUTAC4+0.1/0.1 mM antimycin/oligomycin for 18 h and, probed for p62, b-actin and Tom20. Quantifications of western blot for changes in Tom20 and p62 levels shown in (H) and (I), respectively. (J) Representative images of PANC-1 cells stably expressing the mCherry-EGFP-LC3 tandem reporter. Nuclei stained with Hoechst 33342, autophagosomes are shown in the EGFP channel and autolysosomes in the mCherry channel. Fold change in the number of autophagosome (K) and autolysosome (L) puncta in AUTAC4 treated cells. All data shown are mean±SEM, n=3, *p<0.05, *** p<0.001. For mito-mKeima experiments, statistics were calculated by Two-way ANOVA with Tukey's multiple comparisons test. For western blots, TMRM and LC3 tandem reporter assay, statistics were calculated with one-way ANOVA with Tukey's multiple comparisons test.
(§1) FIG. 2. BL-918 is a potent ULK1 agonist and autophagy inducer (A) Representative images of PANC-1 cells stably expressing the mCherry-EGFP-LC3 tandem reporter treated with ULK1 agonists. Nuclei stained with Hoechst 33342, autophagosomes are shown in the EGFP channel and autolysosomes in the mCherry channel. Fold change in the number of autophagosomes (B) and autolysosomes (C) puncta in ULK1 agonist treated cells. (D) Western blot of PANC-1 cells treated with DMSO, bafilomycin and ULK1 agonists±bafilomycin; probed for p-ULK1 (S317), ULK1, p62, b-actin, LC3-I and LC3-II. Quantifications of western blot for changes in the ratio of p-ULK1 (S317):ULK1 (E), p62 (F) and LC31:LC3II (G). All data shown are mean±SEM, n=3, *p<0.05, ** p<0.01, one-way ANOVA with Dunnett's multiple comparisons test.
(§2) FIG. 4. ULKTACs retain ULK1 agonist activity and subsequent induction of autophagy (A) Western blot of PANC-1 cells treated with ULKTACs±bafilomycin, probed for p-ULK1 (S317), ULK1, p62, b-Actin, LC31 and LC3II. Quantifications of (A) for the pULK1:ULK1 ratio (B) LC3I:LC3II ratio (C) and changes in p62 (D). (E) Representative images of PANC-1 cells stably expressing the mCherry-EGFP-LC3 tandem reporter treated with ULKTACs w/or w/o bafilomycin. Nuclei stained with Hoechst 33342, autophagosomes are shown in the EGFP channel and autolysosomes in the mCherry channel. Fold change in the number of autophagosome (F) and autolysosome (G) puncta. Data shown are mean±SEM, *p<0.05, ** p<0.01, *** p<0.001, one-way ANOVA, Dunnett's multiple comparisons test.
PANC-1 and A549 cells were separately seeded at a medium density in 24-well plates and infected overnight with 500 μL of filtered viral supernatant containing polybrene at a final concentration of 8 μg/mL. Cells were selected at 48 h post-transfection with 1 μg/mL puromycin and expanded into 10 cm tissue-culture treated dishes. Puromycin treatment was withheld once control cells had died. Experiments were performed without puromycin present using pooled populations of transduced cells. A549 and PANC-1 stably expressing mCherry-EGFP-LC3 tandem reporter cells were imaged with the PerkinElmer Opera Phenix or Opera Phenix Plus High Content Imaging Systems and analysed using Columbus software (v2.9.1). […]

LC3 = test: Western blot, LC3I:LC3II ratio in PANC-1 cells; type: cell-based, human
From the text: as §1
as §2, with “Fold change in the number of autophagosome (F) and autolysosome (G) puncta. Data shown are mean±SEM, *p<0.05, ** p<0.01, *** p<0.001, one-way ANOVA, Dunnett's multiple comparisons test.” left out
Cells were homogenised in protein lysis buffer consisting of 0.1 M Tris pH 8.0, 0.1 M NaCl, 5% glycerol, IGEPAL® CA-630 (#18896. Sigma-Aldrich) and 5 mM EDTA, 0.1 M N-ethyl maleimide (ThermoFisher, #23030) and protease inhibitor (Cell Signalling Technologies, #5871). Protein concentrations were determined using the BCA assay to ensure equal loading. […]
Membranes were then incubated with horseradish peroxidase (HRP)-conjugated secondary antibodies (Rabbit #7074 and Mouse #7076) purchased from Cell Signalling Technologies for 1 hour and the HRP signal was detected using EZ-ECL Enhanced Chemiluminescence Detection Kit for HRP (#20-500-500, Sartorius), and imaged with an Alliance Q9 Advanced (UVITec). […]

Row | fold increase in number of mCherry puncta (PANC-1 cells) | fold increase in number of EGFP puncta (PANC-1 cells) | SMILES | autophagic flux (PANC-1 cells) | enhanced number of mCherry puncta (PANC-1 cells) | LC31: LC3II ratio (LC3) | green fluorescent puncta / number of autophagosomes (PANC-1 cells)
1 | 1.3 fold | 1.5 fold | O=C(Nc1cc(C(F)(F)F)cc(C(F)(F)F)c1)N[C@@H](C(=O)Nc1ccc(F)cc1F)c1ccc(OCc2cn(CCCCCCNC(=O)C(=O)c3c(-c4ccccc4)[nH]c4ccccc34)nn2)cc1 [NZ-66, (R)-2-(3-(3,5-bis(trifluoromethyl)phenyl)ureido)-N-(2,4-difluorophenyl)-2-(4-((1-(6-(2-oxo-2-(2-phenyl-1H-indol-3-yl)acetamido)hexyl)-1H-1,2,3-triazol-4-yl)methoxy)phenyl) acetamide] | did not block autophagic flux | reversed | increases in the LC31: LC3II ratio | 
2 | 1.3 fold | 1.5 fold | O=C(Nc1cc(C(F)(F)F)cc(C(F)(F)F)c1)N[C@@H](C(=O)Nc1ccc(F)cc1F)c1ccc(OCc2cn(CCOCCOCCNC(=O)C(=O)c3c(-c4ccccc4)[nH]c4ccccc34)nn2)cc1 [NZ-65, (R)-2-(3-(3,5-bis(trifluoromethyl)phenyl)ureido)-N-(2,4-difluorophenyl)-2-(4-((1-(2-(2-(2-(2-oxo-2-(2-phenyl-1H-indol-3-yl)acetamido)ethoxy)ethoxy)ethyl)-1H-1,2,3-triazol-4-yl)methoxy)phenyl) acetamide] | did not block autophagic flux | reversed | increases in the LC31: LC3II ratio | 
3 |  |  | O=C(Nc1ccc(F)cc1F)[C@H](NC(=S)Nc1cc(C(F)(F)F)cc(C(F)(F)F)c1)c1ccccc1 [BL-918, reference compound] |  |  | increases in the LC31: LC3II ratio | mild increase in autophagosome number
